Reference: patent publication US20210045385A1, “PYRIDAZINONE-SUBSTITUTED KETOXIMES AS HERBICIDES” (FMC Corporation, priority 2018, published 2021)

How the values were obtained:
Assay type in all cases: in vivo
[1] = test system: sedge, umbrella (small-flower umbrella sedge, Cyperus difformis); assay: Test B flooded paddy test, visual plant response rating; details: 250 g ai/ha, Flood, applied to paddy water, 2-leaf stage, evaluated after 13 to 15 days
Method in brief: (§1)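 Visual scores compare treated plants with controls after 13 to 15 days of greenhouse growth. Treatment was made into paddy water standing 3 cm above the soil, with plants at the 2-leaf stage and flooding maintained throughout.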

[2] = test system: ducksalad (Heteranhera limosa); assay: as above; details: 250 g ai/ha, Flood, applied to paddy water, 2-leaf stage, evaluated after 13 to 15 days
Method in brief: as §1

[3] = test system: rice (Oryza sativa); assay: as above; details: 250 g ai/ha, Flood, applied to paddy water, 2-leaf stage, evaluated after 13 to 15 days
Method in brief: as §1

[4] = test system: barnyardgrass (Echinochloa crus-galli); assay: as above; details: 250 g ai/ha, Flood, applied to paddy water, 2-leaf stage, evaluated after 13 to 15 days
Method in brief: as §1

[5] = test system: blackgrass (Alopecurus myosuroides); assay: Test A postemergence, visual plant response rating; details: for Blackgrass plant response rating (0 to 100 scale): 500 g ai/ha, postemergence, 0 is no effect, 100 is complete control; for Blackgrass plant response rating: Postemergence, 125 g ai/ha, 0 to 100 scale (0 no effect, 100 complete control)
Method in brief: (§2)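 Preemergence: seeds in loam/sand blend given directed soil spray of compound in non-phytotoxic solvent with surfactant. Postemergence: plants 2–10 cm, one- to two-leaf stage, sprayed with same formulation. Visual injury rated vs untreated controls after ~10 days in greenhouse, 0 (no effect) to 100 (complete control).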

[6] = test system: corn (Zea mays); assay: Test A postemergence, visual plant response rating; details: for Corn plant response rating (0 to 100 scale): 500 g ai/ha, postemergence, 0 is no effect, 100 is complete control; for Corn plant response rating: Postemergence, 125 g ai/ha, 0 to 100 scale (0 no effect, 100 complete control)
Method in brief: as §2

[7] = test system: galium (catchweed bedstraw, Galium aparine); assay: Test A postemergence, visual plant response rating; details: for Galium plant response rating (0 to 100 scale): 500 g ai/ha, postemergence, 0 is no effect, 100 is complete control; for Galium plant response rating: Postemergence, 125 g ai/ha, 0 to 100 scale (0 no effect, 100 complete control)
Method in brief: as §2

[8] = test system: Italian ryegrass (Lolium multiflorum); assay: Test A postemergence, visual plant response rating; details: for Ryegrass, Italian plant response rating (0 to 100 scale): 500 g ai/ha, postemergence, 0 is no effect, 100 is complete control; for Ryegrass, Italian plant response rating: Postemergence, 125 g ai/ha, 0 to 100 scale (0 no effect, 100 complete control)
Method in brief: as §2

[9] = test system: wheat (Triticum aestivum); assay: Test A postemergence, visual plant response rating; details: for Wheat plant response rating (0 to 100 scale): 500 g ai/ha, postemergence, 0 is no effect, 100 is complete control; for Wheat plant response rating: Postemergence, 125 g ai/ha, 0 to 100 scale (0 no effect, 100 complete control)
Method in brief: as §2

[10] = test system: foxtail, green (green foxtail, Setaria viridis); assay: Test A postemergence, visual plant response rating; details: for Foxtail, Green plant response rating (0 to 100 scale): 500 g ai/ha, postemergence, 0 is no effect, 100 is complete control; for Foxtail, Green plant response rating: Postemergence, 125 g ai/ha, 0 to 100 scale (0 no effect, 100 complete control)
Method in brief: as §2

[11] = test system: ragweed (common ragweed, Ambrosia elatior); assay: Test A postemergence, visual plant response rating; details: for Ragweed plant response rating (0 to 100 scale): 500 g ai/ha, postemergence, 0 is no effect, 100 is complete control; for Ragweed plant response rating: Postemergence, 125 g ai/ha, 0 to 100 scale (0 no effect, 100 complete control)
Method in brief: as §2

[12] = test system: kochia (Kochia scoparia); assay: Test A postemergence, visual plant response rating; details: for Kochia plant response rating (0 to 100 scale): 500 g ai/ha, postemergence, 0 is no effect, 100 is complete control; for Kochia plant response rating: Postemergence, 125 g ai/ha, 0 to 100 scale (0 no effect, 100 complete control)
Method in brief: as §2

[13] = test system: barnyardgrass (Echinochloa crus-galli); assay: Test A postemergence, visual plant response rating; details: for Barnyardgrass plant response rating (0 to 100 scale): 500 g ai/ha, postemergence, 0 is no effect, 100 is complete control; for Barnyardgrass plant response rating: Postemergence, 125 g ai/ha, 0 to 100 scale (0 no effect, 100 complete control)
Method in brief: as §2

[14] = test system: pigweed (Amaranthus retroflexus); assay: Test A postemergence, visual plant response rating; details: for Pigweed plant response rating (0 to 100 scale): 500 g ai/ha, postemergence, 0 is no effect, 100 is complete control; for Pigweed plant response rating: Postemergence, 125 g ai/ha, 0 to 100 scale (0 no effect, 100 complete control)
Method in brief: as §2

[15] = test system: Italian ryegrass (Lolium multiflorum); assay: Test A preemergence, visual plant response rating; details: approx. 10 days
Method in brief: as §2

[16] = test system: foxtail, green (green foxtail, Setaria viridis); assay: Test A preemergence, visual plant response rating; details: approx. 10 days
Method in brief: as §2

[17] = test system: ragweed (common ragweed, Ambrosia elatior); assay: Test A preemergence, visual plant response rating; details: approx. 10 days
Method in brief: as §2

[18] = test system: kochia (Kochia scoparia); assay: Test A preemergence, visual plant response rating; details: approx. 10 days
Method in brief: as §2

[19] = test system: barnyardgrass (Echinochloa crus-galli); assay: Test A preemergence, visual plant response rating; details: approx. 10 days
Method in brief: as §2

[20] = test system: pigweed (Amaranthus retroflexus); assay: Test A preemergence, visual plant response rating; details: approx. 10 days
Method in brief: as §2

Compound | Plant response rating, Sedge, Umbrella (0 to 100 scale, 0 is no effect, 100 is complete control) [1] | Plant response rating, Ducksalad (0 to 100 scale, 0 is no effect, 100 is complete control) [2] | Plant response rating, Rice (0 to 100 scale, 0 is no effect, 100 is complete control) [3] | Plant response rating, Barnyardgrass (0 to 100 scale, 0 is no effect, 100 is complete control) [4] | Blackgrass plant response rating (0 to 100 scale) [5] | Blackgrass plant response rating [5] | Corn plant response rating (0 to 100 scale) [6] | Corn plant response rating [6] | Galium plant response rating (0 to 100 scale) [7] | Galium plant response rating [7] | Ryegrass, Italian plant response rating (0 to 100 scale) [8] | Ryegrass, Italian plant response rating [8] | Wheat plant response rating (0 to 100 scale) [9] | Wheat plant response rating [9] | Foxtail, Green plant response rating (0 to 100 scale) [10] | Foxtail, Green plant response rating [10] | Ragweed plant response rating (0 to 100 scale) [11] | Ragweed plant response rating [11] | Kochia plant response rating (0 to 100 scale) [12] | Kochia plant response rating [12] | other results
CON=C(c1ccccc1Cl)c1c(O)c(C)nn(C)c1=O (stereo in doubt) [Compound 29] | 0 | 0 | 0 | 0 | 70 | 20 | 10 | 0 | 80 | 70 | 90 | 30 | 20 | 20 | 20 | 0 | 70 | 60 | 30 | 10 | Barnyardgrass plant response rating (0 to 100 scale) [13]: 20; Barnyardgrass plant response rating [13]: 0; Pigweed plant response rating (0 to 100 scale) [14]: 50; Pigweed plant response rating [14]: 40; Ryegrass, Italian plant response rating (0 to 100 scale) ([15]; 125 g ai/ha Preemergence): 20; Ryegrass, Italian plant response rating (0 to 100 scale) ([15]; 500 g ai/ha Preemergence): 70; Foxtail, Green plant response rating (0 to 100 scale) ([16]; 125 g ai/ha Preemergence): 30; Foxtail, Green plant response rating (0 to 100 scale) ([16]; 500 g ai/ha Preemergence): 50; Ragweed plant response rating (0 to 100 scale) ([17]; 125 g ai/ha Preemergence): 30; Ragweed plant response rating (0 to 100 scale) ([17]; 500 g ai/ha Preemergence): 90; Kochia plant response rating (0 to 100 scale) ([18]; 125 g ai/ha Preemergence): 0; Kochia plant response rating (0 to 100 scale) ([18]; 500 g ai/ha Preemergence): 10; Barnyardgrass plant response rating (0 to 100 scale) ([19]; 125 g ai/ha Preemergence): 30; Barnyardgrass plant response rating (0 to 100 scale) ([19]; 500 g ai/ha Preemergence): 50; Pigweed plant response rating (0 to 100 scale) ([20]; 125 g ai/ha Preemergence): 0; Pigweed plant response rating (0 to 100 scale) ([20]; 500 g ai/ha Preemergence): 20
CCO/N=C(\c1cccc(C)c1C)c1c(O)c(C)nn(C)c1=O [Compound 25] | 0 | 0 | 0 | 0 | 40 | 0 | 0 | 0 | 20 | 20 | 40 | 10 | 0 | 0 | 10 | 0 | 40 | 20 | 10 | 0 | Barnyardgrass plant response rating (0 to 100 scale) [13]: 30; Barnyardgrass plant response rating [13]: 0; Pigweed plant response rating (0 to 100 scale) [14]: 50; Pigweed plant response rating [14]: 40; Ryegrass, Italian plant response rating (0 to 100 scale) ([15]; 125 g ai/ha Preemergence): 10; Ryegrass, Italian plant response rating (0 to 100 scale) ([15]; 500 g ai/ha Preemergence): 30; Foxtail, Green plant response rating (0 to 100 scale) ([16]; 125 g ai/ha Preemergence): 0; Foxtail, Green plant response rating (0 to 100 scale) ([16]; 500 g ai/ha Preemergence): 60; Ragweed plant response rating (0 to 100 scale) ([17]; 125 g ai/ha Preemergence): 30; Ragweed plant response rating (0 to 100 scale) ([17]; 500 g ai/ha Preemergence): 90; Kochia plant response rating (0 to 100 scale) ([18]; 125 g ai/ha Preemergence): 0; Kochia plant response rating (0 to 100 scale) ([18]; 500 g ai/ha Preemergence): 0; Barnyardgrass plant response rating (0 to 100 scale) ([19]; 125 g ai/ha Preemergence): 0; Barnyardgrass plant response rating (0 to 100 scale) ([19]; 500 g ai/ha Preemergence): 0; Pigweed plant response rating (0 to 100 scale) ([20]; 125 g ai/ha Preemergence): 90; Pigweed plant response rating (0 to 100 scale) ([20]; 500 g ai/ha Preemergence): 40
CO/N=C(/c1cccc(C)c1)c1c(O)c(C2CC2)nn(C)c1=O [Compound 28] | 0 | 0 | 0 | 0 | 40 | 0 | 0 | 0 | 60 | 20 | 10 | 0 | 0 | 0 | 10 | 0 | 40 | 0 | 0 | 0 | Barnyardgrass plant response rating (0 to 100 scale) [13]: 30; Barnyardgrass plant response rating [13]: 0; Pigweed plant response rating (0 to 100 scale) [14]: 40; Pigweed plant response rating [14]: 30; Ryegrass, Italian plant response rating (0 to 100 scale) ([15]; 125 g ai/ha Preemergence): 0; Ryegrass, Italian plant response rating (0 to 100 scale) ([15]; 500 g ai/ha Preemergence): 0; Foxtail, Green plant response rating (0 to 100 scale) ([16]; 125 g ai/ha Preemergence): 0; Foxtail, Green plant response rating (0 to 100 scale) ([16]; 500 g ai/ha Preemergence): 30; Ragweed plant response rating (0 to 100 scale) ([17]; 125 g ai/ha Preemergence): 0; Ragweed plant response rating (0 to 100 scale) ([17]; 500 g ai/ha Preemergence): 10; Kochia plant response rating (0 to 100 scale) ([18]; 125 g ai/ha Preemergence): 0; Kochia plant response rating (0 to 100 scale) ([18]; 500 g ai/ha Preemergence): 0; Barnyardgrass plant response rating (0 to 100 scale) ([19]; 125 g ai/ha Preemergence): 0; Barnyardgrass plant response rating (0 to 100 scale) ([19]; 500 g ai/ha Preemergence): 0; Pigweed plant response rating (0 to 100 scale) ([20]; 125 g ai/ha Preemergence): 0; Pigweed plant response rating (0 to 100 scale) ([20]; 500 g ai/ha Preemergence): 10
